Values of other authors, collected in US20070249572A1, “Systems and methods for the delivery of corticosteroids” (Verus Pharmaceuticals, Inc., priority 2005, published 2007).

- solubility in alcohols (alcohols): readily soluble in alcohols
- solubility in water (water): virtually insoluble in water
SMILES: CCCC1O[C@@H]2C[C@H]3[C@@H]4CCC5=CC(=O)C=C[C@]5(C)[C@H]4[C@@H](O)C[C@]3(C)[C@]2(C(=O)CO)O1 (stereo partly drawn) [budesonide, (R,S)-llβ,16α,17,21-tetrahydroxypregna-1,4-diene-3,20-dione cyclic 16,17-acetal with butyraldehyde]
